Values belong to the substance of their own block, whether it stands above or below them.
Key:
[1] = target: T1, TLR4 (Mus musculus, UniProt Q9JHF9+Q9QUK6); assay: NFκB-luciferase reporter assay in HEK/TLR4(+) cells with perturbed CXCR4 (Examples 2 and 3); format: cell-based, murine
T1 construct: expressed in transfected cells
T1 sequence (Q9QUK6 26-835): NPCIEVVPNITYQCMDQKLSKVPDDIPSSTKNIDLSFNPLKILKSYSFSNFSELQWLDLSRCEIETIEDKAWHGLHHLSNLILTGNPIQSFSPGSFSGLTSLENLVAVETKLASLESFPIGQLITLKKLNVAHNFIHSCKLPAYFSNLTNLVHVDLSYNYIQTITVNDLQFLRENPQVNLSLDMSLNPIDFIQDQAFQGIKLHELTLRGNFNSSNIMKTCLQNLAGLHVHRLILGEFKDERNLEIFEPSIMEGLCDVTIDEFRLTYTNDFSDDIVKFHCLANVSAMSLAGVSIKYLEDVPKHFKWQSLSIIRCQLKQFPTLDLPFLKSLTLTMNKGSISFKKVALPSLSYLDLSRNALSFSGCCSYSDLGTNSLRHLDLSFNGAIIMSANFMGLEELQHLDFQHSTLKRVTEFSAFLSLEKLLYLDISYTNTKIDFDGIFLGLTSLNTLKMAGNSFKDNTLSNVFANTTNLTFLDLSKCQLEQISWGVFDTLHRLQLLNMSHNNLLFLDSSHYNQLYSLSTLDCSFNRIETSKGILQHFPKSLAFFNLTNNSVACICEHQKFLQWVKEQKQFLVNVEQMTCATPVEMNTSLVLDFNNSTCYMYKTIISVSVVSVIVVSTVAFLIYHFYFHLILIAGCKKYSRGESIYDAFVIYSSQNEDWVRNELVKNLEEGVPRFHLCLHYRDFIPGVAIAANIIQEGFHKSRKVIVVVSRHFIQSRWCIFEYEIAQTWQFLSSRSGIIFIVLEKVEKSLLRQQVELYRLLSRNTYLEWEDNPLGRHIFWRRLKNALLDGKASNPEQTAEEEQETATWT
T1 sequence (Q9JHF9 19-160): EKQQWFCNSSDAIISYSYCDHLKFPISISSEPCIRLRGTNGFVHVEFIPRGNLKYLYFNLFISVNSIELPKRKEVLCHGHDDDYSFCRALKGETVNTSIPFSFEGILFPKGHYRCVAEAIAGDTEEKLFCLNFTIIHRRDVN
Experimental: HEK 293 cells (human embryonic kidney cells) from American Type Culture Collection (ATCC) were cultured in DMEM containing 10% fetal bovine serum, penicillin, and streptomycin. […] TLR4/MD2/CD14 expressing HEK 293 cells were selected using appropriate antibiotic selection medium and were then cloned by limiting dilution in the same medium. Control cells were prepared using empty expression vectors and identical transfection and selection procedures.
HEK 293 cell lines stably expressing TLR4/MD2/CD14 were seeded into 24-well tissue culture plates (2×10^5 cells/well) and allowed to adhere at 37° C. overnight. The adherent cells were transfected with 0.1 μg pTK Renilla-luciferase and 0.1 μg NFκB-firefly-luciferase using Superfect Transfection Reagent (Qiagen) and then cultured for 24 hours at 37° C. in 1 mL DMEM containing 0.5% fetal bovine serum. The cells were stimulated as indicated, washed with phosphate buffered saline, and lysed with 150 μL Passive Lysis Buffer (Promega). The amount of Renilla- and Firefly-luciferase in the cell lysates was assayed simultaneously using Dual-Luciferase Reporter Assay System (Promega) and a TD-20/20 lumenometer (Turner Designs, Sunnyvale, Calif.). Activation of NFκB-firefly luciferase reporter activity is given as the ratio of firefly luciferase to the internal control Renilla luciferase activity, determined and expressed as the mean of triplicate wells.

[2] = target: T2, TLR4/MD2 complex (Mus musculus, UniProt Q9JHF9+Q9QUK6); assay: Cell surface expression of TLR4/MD2 on HEK/TLR4(+) cells (flow cytometry); format: cell-based, murine; settings: HEK/TLR4 cells treated with SDF-1
T2 construct: expressed in transfected cells; host or cells: HEK 293 (HEK/TLR4(+))
T2 sequence (Q9QUK6 26-835): T1 sequence (Q9QUK6 26-835)
T2 sequence (Q9JHF9 19-160): T1 sequence (Q9JHF9 19-160)
Experimental: FIG. 2. TLR4 signaling is conditioned by extracellular matrix. The impact of extracellular matrix on TLR4 activation was tested in cells cultured in wells coated with extracellular matrix. (A) and (B) Inhibition of NFκB activation by extracellular matrix in HEK/TLR4(+) cells. HEK/TLR4(+) cells were cultured in wells coated with extracellular matrix (ECM) or fibronectin (FN) and transfected with NFκB- and control-luciferase reporter genes. TLR4 signaling in response to increasing amounts of heparan sulfate (A) or LPS (B) was measured six hours after stimulation. […] The cells were tested for cell surface expression of the TLR4/MD2 complex by flow cytometry using monoclonal antibodies specific for that complex. […] (D) and (E) Inhibition of p38 MAP Kinase activation by extracellular matrix in RAW 264 cells. (D) RAW 264.7 murine macrophages were cultured in wells coated with extracellular matrix (ECM) or fibronectin (FN). The cells were stimulated with heparan sulfate (left panel) or LPS (right panel) for the indicated time (minutes), after which the cells were lysed and activated p38 MAPK (phospho p38) was measured by immunoblotting. […] Similar results were obtained for cells stimulated with LPS. The data shown are representative of 3 separate experiments and indicate that activation of TLR4 signaling is inhibited by extracellular matrix.

[3] = target: T3, CXCR4 (Homo sapiens, UniProt P61073); assay: CXCR4 cell surface level on Jurkat T cells (FACS, internalization of CXCR4); format: cell-based; settings: 37° C. for 30 minutes
T3 construct: endogenous in cells; host or cells: Jurkat T cells
Experimental: To determine if the purified, recombinant [Hisx6]SDF-1 polypeptide activates CXCR4, Jurkat T cells were stimulated (37° C. for 30 minutes) with buffer alone or with buffer containing a synthetic SDF-1 polypeptide or the purified recombinant [Hisx6]SDF-1 polypeptide. Control cells were stimulated with bovine albumin. The treated cells were stained with fluorochrome-labeled anti-CXCR4 antibodies, and the amount of CXCR4 on the cell surface was measured by the intensity of CXCR4 antibody staining using FACS.

[4] = target: T4, TLR4 (Mus musculus, UniProt Q9QUK6); assay: CD86 expression in mouse spleen after intrasplenic injection (immunopathology); format: in vivo, mice; settings: wild-type TLR4 mice, 12 hours
T4 construct: Spleens of C57BL/10SnJ mice with wild-type TLR4 (SnJ) were injected with 10 ng LPS; from tissue; host or cells: mouse spleen in vivo (C57BL/10SnJ; control C57BL/10ScN lacks the TLR4 gene)
T4 sequence (Q9QUK6 26-835): T1 sequence (Q9QUK6 26-835)
T4 sequence (Q9JHF9 19-160 partner): T1 sequence (Q9JHF9 19-160)
Experimental: (§1) TLR4-deficient C57BL/10ScN mice, which have a deletion in chromosome 4 that encompasses the TLR4 gene, were obtained from The National Cancer Institute (Bethesda, Md.). C57BL/10SnJ mice, which have wild type TLR4 and are congenic with C57BL/10ScN were obtained from the Jackson Laboratory (Bar Harbor, Me.).
(§2) Mice were anesthetized, and the spleen was directly visualized through an incision in the lateral abdominal wall. TLR4 activators dissolved in 50 μL of PBS were injected into the spleen as follows. The solutions were injected as a 27 gauge needle was withdrawn along the long axis of the organ. Twelve hours after injection, the spleens were harvested and frozen in liquid nitrogen for analysis of CD86 expression. Studies were performed at twelve hours because preliminary experiments indicated CD86 expression became clearly detectable at this time. Longitudinal tissue sections were prepared from the center of the spleen and stained as described elsewhere (Dempsey et al., Glycobiology, 10:467-475 (2000)) with the following modifications. Secondary detection antibodies were diluted in M.O.M. diluent (Vector Laboratories, Burlingame, Calif.) and preabsorbed with mouse serum (Jackson ImmunoResearch Laboratories, West Grove, Pa.). Fluorescent images were converted to grayscale using SPOT software (Diagnostic Instruments, Sterling Heights, Mich.).

[5] = system: TLR4; assay: as above; format: in vivo, mice; settings: mice which lack TLR4 function (ScN), injected into spleen
Experimental: as §1, §2

[6] = target: T1, TLR4; assay: NFκB-luciferase reporter assay in HEK/TLR4(+) cells (Example 1: TLR4 activators, extracellular matrix, elastase); format: cell-based, murine
Description: HEK 293 cells were stabily transfected with the TLR4 and MD2 or CD14 expression plasmids, each of which encode a component of a complete, functional TLR4 receptor complex (Akira and Takeda, Nat. Rev. Immunol., 4:499-511 (2004)) using Superfect (Qiagen, Valencia, Calif.) following the manufacturer's instructions. TLR4- and MD2- or CD14-expressing HEK 293 cells were obtained by culturing the transfected cells with appropriate antibiotic selection medium and cloning by limiting dilution in the selection medium. HEK 293 cells expressing TLR4, MD2, and CD14 were generated by transfecting HEK 293 cells expressing TLR4 and MD2 with the CD14 expression plasmid and selecting clones using appropriate antibiotic containing medium. Cell lines expressing TLR4 and MD2 and/or CD14 were then maintained in DMEM supplemented with 10% fetal bovine serum and the appropriate selection antibiotics. Control cell lines were transfected with empty expression vectors and incubated in selection conditions as described above.
Activation of NFκB was measured using a NFκB-luciferase reporter assay. HEK 293 cell lines stabily expressing TLR4, MD2, and/or CD14, or control cells were seeded into 24 well tissue culture plates (2×10^5 cells/well) in 1.0 mL DMEM containing 10% fetal bovine serum and penicillin and streptomycin. The cells were allowed to adhere to the culture wells at 37° C. overnight and were then transfected with 0.1 μg pTK Renilla-luciferase and 0.1 μg NFκB-firefly-luciferase using Superfect Transfection Reagent (Qiagen). Following transfection, the cells were washed once with phosphate buffered saline and cultured for 24 hours at 37° C. in 1.0 mL DMEM containing 0.5% fetal bovine serum. After various treatments, the culture medium was aspirated, and the cells were washed once with PBS. The cells were then lysed in 150 μL Passive Lysis Buffer (Promega) with rocking at room temperature for 15 minutes. Renilla- and Firefly-luciferase were assayed simultaneously using Dual-Luciferase Reporter Assay System (Promega) and a TD-20/20 luminometer (Turner Designs, Sunnyvale, Calif.). Activation of NFκB was reported as a ratio of the firefly luciferase activity to the constitutively expressed Renilla luciferase internal control, and as the mean of triplicate wells.

T3 sequence (P61073 whole entry): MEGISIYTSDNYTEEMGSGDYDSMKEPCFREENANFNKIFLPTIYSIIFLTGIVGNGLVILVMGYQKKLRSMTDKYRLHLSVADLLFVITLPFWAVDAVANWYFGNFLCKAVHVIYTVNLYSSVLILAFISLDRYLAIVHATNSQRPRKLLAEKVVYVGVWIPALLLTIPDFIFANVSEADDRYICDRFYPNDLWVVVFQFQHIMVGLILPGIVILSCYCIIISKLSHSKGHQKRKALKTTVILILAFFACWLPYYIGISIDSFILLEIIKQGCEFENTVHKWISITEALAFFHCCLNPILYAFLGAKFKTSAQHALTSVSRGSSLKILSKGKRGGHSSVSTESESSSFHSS

Substance: SDF-1: the agonist for CXCR4; natural ligand polypeptide
TLR4 activation by LPS (NFκB-luciferase) ([1]; HEK/TLR4(+) cells stimulated simultaneously with LPS and 50 nM SDF-1): indifferent to the presence of LPS at any concentration tested | NFκB-luciferase reporter activation by the agent itself ([1]; HEK/TLR4(+) cells, no LPS): slight activation of the luciferase reporter | Expression of TLR4 [2]: did not alter expression of TLR4

Substance: [Hisx6]SDF-1: recombinant, histidine-tagged murine SDF-1 polypeptide produced in E. coli
Amount of CXCR4 on the cell surface [3]: stimulate a decrease in CXCR4 on cell surfaces

Substance: pertussis toxin
TLR4 activation by LPS (NFκB-luciferase) ([1]; HEK/TLR4(+) cells treated with 0.1 μg/mL pertussis toxin): diminished TLR4 activation by LPS

The next lines start with results.

Expression of CD86 in splenocytes ([4]; 0.1 U elastase alone): profoundly increased expression of CD86 | Expression of CD86 in splenocytes ([4]; small amount (0.01 U) of elastase along with 1 ng LPS): profoundly increased expression of CD86 | TLR4 response to elastase ([6]; cells grown on fibronectin): did not respond to elastase | Increase of TLR4 response to heparan sulfate versus no elastase ([6]; cells on extracellular matrix, elastase 0.1 U/mL, 1 μg/mL heparan sulfate, 4 hours): about 3 fold
Substance: elastase
Expression of CD86 in splenocytes ([4]; 0.01 U elastase into spleen): only modestly increased expression of CD86 | Increase in CD86 expression [5]: not observed | TLR4 response without added agonist ([6]; cells on extracellular matrix, elastase 0.3 U/mL, 4 hours): stimulated full TLR4 responses without addition of agonist

TLR4 response to heparan sulfate ([6]; cells grown on fibronectin, 1 μg/mL HS, 4 hours): responded fully to HS
Substance: heparan sulfate
Activation of HEK/TLR4(+) cells (NFκB-luciferase) ([6]; 10 μg/mL heparan sulfate or 10 ng/mL LPS, 6 hours): responded both to LPS and heparan sulfate

Source: patent US8153592B2, “Modulating toll-like receptor activity” (Mayo Foundation for Medical Education and Research, priority 2005, dated 2012)
